Data taken from ChEMBL document CHEMBL1201862, “PubChem BioAssay data set” (2004).
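Growth conditions: 96-well plates. Treatment: test compound, 48 hours, 5 concentrations. Analysis: linear interpolation between bracketing concentrations; unreached endpoints set to highest concentration. At the GI50, growth is halved.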 Active and inactive are the calls of the source. Cut-off read from the data, not from the text of the source: active = GI50 up to about 1.1 µM and inactive = higher.

Columns and labels:
Test in all cases: inhibition of tumour cell growth, NCI panel, 48 h
HCC 2998 = test system: HCC 2998
SW-620 = test system: SW-620
SF-539 = test system: SF-539
SF-268 = test system: SF-268
KM12 = test system: KM12
HCT-116 = test system: HCT-116
SN12C = test system: SN12C
K562 = test system: K562
CAKI-1 = test system: CAKI-1
UO-31 = test system: UO-31
RXF 393 = test system: RXF 393
OVCAR-8 = test system: OVCAR-8
M14 = test system: M14
A498 = test system: A498
CCRF-CEM = test system: CCRF-CEM
NCI-H226 = test system: NCI-H226
786-0 = test system: 786-0
HL-60 = test system: HL-60
SR = test system: SR

Measured: GI50

CN(C)CC1(C)CC/C(=C\c2ccccc2)C1=O (configuration not stated)
inactive: HCC 2998 > 100 µM | SW-620 63.1 µM | SF-539 > 100 µM | SF-268 > 100 µM | KM12 > 100 µM | HCT-116 > 100 µM | SN12C > 100 µM | K562 > 100 µM | CAKI-1 > 100 µM | UO-31 > 100 µM | RXF 393 > 100 µM | OVCAR-8 > 100 µM | M14 > 100 µM | A498 > 100 µM | CCRF-CEM 43.1 µM | NCI-H226 > 100 µM | 786-0 > 100 µM

CC1=C(C(=O)CC(=O)C(=O)Nc2cccc(Cl)c2C)Sc2ccccc2N1
inactive: HL-60 > 100 µM | HCC 2998 > 100 µM | SW-620 > 100 µM | SF-539 > 100 µM | SF-268 > 100 µM | KM12 > 100 µM | HCT-116 > 100 µM | SN12C > 100 µM | K562 > 100 µM | CAKI-1 > 100 µM | UO-31 > 100 µM | RXF 393 > 100 µM | OVCAR-8 > 100 µM | M14 > 100 µM | SR > 100 µM | CCRF-CEM > 100 µM | NCI-H226 > 100 µM | 786-0 > 100 µM

C/C(=N\NC(=O)CC(=O)Nc1ccc(Cl)cc1)c1cc2ccccc2oc1=O
inactive: HL-60 > 100 µM | SW-620 > 100 µM | SF-539 > 100 µM | KM12 > 100 µM | HCT-116 > 100 µM | SN12C > 100 µM | K562 > 100 µM | UO-31 > 100 µM | RXF 393 > 100 µM | OVCAR-8 > 100 µM | M14 > 100 µM | CCRF-CEM > 100 µM | NCI-H226 > 100 µM | 786-0 > 100 µM

CCCN(CCCCC(NC(C)=O)C(=O)NCc1ccccc1)C(=O)N(C)N=O (configuration not stated)
inactive: HCC 2998 > 100 µM | SW-620 > 100 µM | SF-539 > 100 µM | SF-268 > 100 µM | KM12 > 100 µM | HCT-116 > 100 µM | SN12C > 100 µM | K562 > 100 µM | CAKI-1 > 100 µM | UO-31 > 100 µM | RXF 393 > 100 µM | OVCAR-8 > 100 µM | M14 > 100 µM | A498 > 100 µM | CCRF-CEM > 100 µM | NCI-H226 > 100 µM | 786-0 > 100 µM

O=S(=O)(Oc1ccc2ccccc2c1-c1c(OS(=O)(=O)C(F)(F)F)ccc2ccccc12)C(F)(F)F
inactive: HL-60 11.3 µM | HCC 2998 31 µM | SW-620 > 100 µM | SF-539 > 100 µM | SF-268 > 100 µM | KM12 > 100 µM | HCT-116 9.64 µM | K562 16.9 µM | CAKI-1 > 100 µM | UO-31 37.8 µM | RXF 393 43.4 µM | OVCAR-8 > 100 µM | M14 91.8 µM | A498 26.4 µM | SR 7.67 µM | CCRF-CEM 29.3 µM | NCI-H226 79.1 µM | 786-0 > 100 µM

COc1cc(C(=C2SCCS2)c2nccc3cc(OC)c(OC)cc23)c([N+](=O)[O-])cc1OC
inactive: HL-60 10.5 µM | HCC 2998 > 100 µM | SW-620 62.1 µM | SF-539 > 100 µM | SF-268 80.9 µM | KM12 90.4 µM | HCT-116 80.4 µM | SN12C 48.9 µM | K562 9.42 µM | UO-31 27.2 µM | RXF 393 > 100 µM | OVCAR-8 > 100 µM | M14 89.9 µM | A498 > 100 µM | SR 21.7 µM | CCRF-CEM 34.1 µM | NCI-H226 80.4 µM | 786-0 59.3 µM

Cc1ccccc1C1=[N+]([O-])c2ccc(Cl)cc2C1=O
inactive: HL-60 2.35 µM | HCC 2998 13.6 µM | SW-620 25.4 µM | SF-539 17.7 µM | SF-268 18.5 µM | KM12 14.1 µM | HCT-116 7.46 µM | SN12C 15.2 µM | K562 6.12 µM | UO-31 14.3 µM | RXF 393 20 µM | OVCAR-8 7.14 µM | M14 16.3 µM | A498 20.2 µM | SR 11.8 µM | CCRF-CEM 3.82 µM | NCI-H226 14.4 µM | 786-0 18.9 µM

CC(=O)NC1C(OCc2ccccc2)OC(COC(=O)CCCCCCCCCCNc2ccc([N+](=O)[O-])c3[nH]c4ccccc4c(=O)c23)C(O)C1OC(C)C(=O)NC(C)C(=O)NC(CCC(N)=O)C(=O)OCc1ccccc1 (configuration not stated)
inactive: HL-60 > 100 µM | HCC 2998 > 100 µM | SW-620 > 100 µM | SF-539 > 100 µM | SF-268 > 100 µM | KM12 > 100 µM | HCT-116 > 100 µM | SN12C > 100 µM | K562 > 100 µM | CAKI-1 > 100 µM | UO-31 > 100 µM | OVCAR-8 > 100 µM | M14 > 100 µM | A498 > 100 µM | SR > 100 µM | NCI-H226 > 100 µM | 786-0 > 100 µM
